Data from article PMC6934184, “Selective DNA-PKcs inhibition extends the therapeutic index of localized radiotherapy and chemotherapy” (The Journal of Clinical Investigation, 2019).

Target: T1, DDR1 (Homo sapiens, UniProt Q08345)
T1 construct: purchased Thermo Fisher Scientific (Life Technologies) SelectScreen
Experiment: SelectScreen LanthaScreen
Format: binding
Conditions: read-out: % displacement
Method in brief: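 SelectScreen broad panel; activity (Z'LYTE, Adapta) plus binding formats. ATP: Km app for CSF1R Z'LYTE; 10 for CAMK1 Adapta. Readout = % per kinase.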

T1 sequence (Q08345 19-913): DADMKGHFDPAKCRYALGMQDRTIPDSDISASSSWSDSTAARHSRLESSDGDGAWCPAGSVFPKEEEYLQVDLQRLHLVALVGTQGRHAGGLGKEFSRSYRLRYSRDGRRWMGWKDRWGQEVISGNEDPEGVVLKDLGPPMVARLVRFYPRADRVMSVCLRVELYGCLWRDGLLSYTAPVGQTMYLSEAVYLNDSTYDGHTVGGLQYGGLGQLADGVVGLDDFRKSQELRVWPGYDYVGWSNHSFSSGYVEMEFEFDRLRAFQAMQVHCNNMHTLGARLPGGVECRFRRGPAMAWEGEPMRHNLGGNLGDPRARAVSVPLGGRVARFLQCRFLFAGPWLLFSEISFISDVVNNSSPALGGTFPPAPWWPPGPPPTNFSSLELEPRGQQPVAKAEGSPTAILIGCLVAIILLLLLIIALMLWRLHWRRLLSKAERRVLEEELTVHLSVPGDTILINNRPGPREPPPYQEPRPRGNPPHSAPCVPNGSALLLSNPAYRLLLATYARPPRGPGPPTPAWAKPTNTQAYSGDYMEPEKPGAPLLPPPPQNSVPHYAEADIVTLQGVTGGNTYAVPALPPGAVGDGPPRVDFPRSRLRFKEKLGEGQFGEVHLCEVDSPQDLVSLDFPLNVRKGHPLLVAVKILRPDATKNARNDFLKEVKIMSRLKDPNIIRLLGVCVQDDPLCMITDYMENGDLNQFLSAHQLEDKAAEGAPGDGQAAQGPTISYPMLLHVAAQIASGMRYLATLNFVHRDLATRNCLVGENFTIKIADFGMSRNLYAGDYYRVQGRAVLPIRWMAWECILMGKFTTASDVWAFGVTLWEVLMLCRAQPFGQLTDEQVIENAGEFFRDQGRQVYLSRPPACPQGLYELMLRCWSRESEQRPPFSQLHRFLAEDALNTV

Compound CN(C(=O)CN1CCOCC1)c1ccc2sc3c(-c4cccc5c(=O)cc(N6CC7CCC(C6)O7)oc45)cccc3c2c1 [NU5455] has an inhibition at 1 µM of -1.8%.
